Laboratory results reported in patent publication US7335659B2, “Substituted 10-aryl-11H-benzo[b]fluorenes and 7-aryl-5, 6-dihydro-benzo[a]anthracenes for selective effects on estrogen receptors” (N.V. Organon, priority 2002, dated 2008).

target: T1, human estrogen receptor β receptor (hERβ) (Homo sapiens, UniProt Q92731); test: Antiestrogenic activity in in vitro bioassay with recombinant CHO cells co-transfected with hERβ, rat oxytocin promoter and luciferase reporter gene; format: cell-based; details: potency ratio relative to standard ICI 164.384; inhibition of estradiol-induced luciferase transactivation via hERβ in CHO cells
T1 construct: expressed in transfected cells; host or cells: Chinese hamster ovary (CHO) cells, stably co-transfected with hERβ, rat oxytocin promoter and luciferase reporter gene
Description: The estrogenic and antiestrogenic activity of compounds is determined in an in vitro bioassay with recombinant Chinese hamster ovary (CHO) cells stably co-transfected with the human estrogen receptor α (hERα) or β receptor (hERβ), the rat oxytocin promoter (RO) and the luciferase reporter gene (LUC). The estrogenic activity (potency ratio) of a test compound to stimulate the transactivation of the enzyme luciferase mediated via the estrogen receptors hERα or hERβ is compared with the standard estrogen estradiol. The antiestrogenic activity (potency ratio) of a test compound to inhibit the transactivation of the enzyme luciferase mediated via the estrogen receptors hERα or hERβ by the estrogen estradiol is compared with the standard ICI 164.384 (=(7α, 17β)-N-butyl-3,17-dihydroxy-N-methylestra-1,3,5(10)-triene-7-undecanamide).

T1 sequence (Q92731 whole entry): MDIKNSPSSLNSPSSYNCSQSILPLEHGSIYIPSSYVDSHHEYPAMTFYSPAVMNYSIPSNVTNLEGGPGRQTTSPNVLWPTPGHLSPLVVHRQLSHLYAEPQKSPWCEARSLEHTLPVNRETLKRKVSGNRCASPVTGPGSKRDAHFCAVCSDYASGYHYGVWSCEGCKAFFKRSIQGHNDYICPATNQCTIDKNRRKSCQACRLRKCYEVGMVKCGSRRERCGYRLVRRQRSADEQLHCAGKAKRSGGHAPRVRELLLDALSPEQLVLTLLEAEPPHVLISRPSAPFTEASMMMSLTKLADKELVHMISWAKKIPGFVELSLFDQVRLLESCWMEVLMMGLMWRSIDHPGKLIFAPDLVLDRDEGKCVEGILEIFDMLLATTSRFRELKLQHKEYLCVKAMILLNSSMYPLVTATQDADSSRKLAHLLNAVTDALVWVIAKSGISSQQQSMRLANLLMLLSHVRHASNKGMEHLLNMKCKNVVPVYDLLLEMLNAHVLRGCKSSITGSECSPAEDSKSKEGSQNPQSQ

Which ERβ antagonism does the source give for COc1ccc(-c2c3c(cc4ccc(O)cc24)-c2ccc(O)cc2C3)cc1 [Compound 5k] here?
The ERβ antagonism was “+ (>5% (relative to ICI): +)”.

For Oc1ccc2c(c1)Cc1c-2cc2ccc(O)cc2c1-c1ccc(F)c(Cl)c1 [Compound 5f], which ERβ antagonism is on record?
Its ERβ antagonism is “+ (>5% (relative to ICI): +)”.

For Oc1ccc2c(c1)Cc1c-2cc2ccc(O)cc2c1-c1ccc(-c2ccccc2)cc1 [Compound 5h], which ERβ antagonism is on record?
The ERβ antagonism was “+ (>5% (relative to ICI): +)”.

With Oc1ccc2c(c1)Cc1c-2cc2ccc(O)cc2c1-c1ccc(Cl)c(Cl)c1 [Compound 5m] as the compound, how does the ERβ antagonism read?
Its ERβ antagonism is “++ (>40%: ++)”.

Which ERβ antagonism does the source give for Oc1ccc2c(c1)Cc1c-2cc2ccc(O)cc2c1-c1ccc(OCCN2CCCCC2)cc1 [Compound 9] here?
Its ERβ antagonism is “++ (>40%: ++)”.

Oc1ccc2c(c1)Cc1c-2cc2ccc(O)cc2c1-c1cccc(Cl)c1 [Compound 5n] was tested. Which ERβ antagonism did it give?
Its ERβ antagonism is “+ (>5% (relative to ICI): +)”.

How did the ERβ antagonism turn out when Oc1ccc2c(c1)Cc1c-2cc2ccc(O)cc2c1-c1ccccc1 [Compound 5v] was run?
The ERβ antagonism was “+ (>5% (relative to ICI): +)”.

With Oc1ccc2c(c1)Cc1c-2cc2ccc(O)cc2c1-c1ccc2c(c1)OCO2 [Compound 5g] as the compound, how does the ERβ antagonism read?
The ERβ antagonism was “+ (>5% (relative to ICI): +)”.

Oc1ccc2c(c1)Cc1c-2cc2ccc(O)cc2c1-c1ccc2ccccc2c1 [Compound 5b] was tested. Which ERβ antagonism did it give?
The ERβ antagonism was “+ (>5% (relative to ICI): +)”.

How did the ERβ antagonism turn out when Oc1ccc2c(c1)Cc1c-2cc2ccc(O)cc2c1-c1cccc(F)c1 [Compound 5j] was run?
The ERβ antagonism was “+ (>5% (relative to ICI): +)”.

How did the ERβ antagonism turn out when Oc1ccc2c(c1)Cc1c-2cc2ccc(O)cc2c1-c1ccc(-c2ccccc2)c(F)c1 [Compound 5s] was run?
The ERβ antagonism was “+ (>5% (relative to ICI): +)”.

With COc1cccc(-c2c3c(cc4ccc(O)cc24)-c2ccc(O)cc2C3)c1 [Compound 5c] as the compound, how does the ERβ antagonism read?
The ERβ antagonism was “+ (>5% (relative to ICI): +)”.

How did the ERβ antagonism turn out when Oc1ccc2c(c1)Cc1c-2cc2ccc(O)cc2c1-c1ccc(OC(F)(F)F)cc1 [Compound 5r] was run?
The ERβ antagonism was “++ (>40%: ++)”.

How did the ERβ antagonism turn out when Oc1ccc2c(c1)Cc1c-2cc2ccc(O)cc2c1-c1ccc(Cl)cc1 [Compound 5a] was run?
The ERβ antagonism was “+ (>5% (relative to ICI): +)”.

How did the ERβ antagonism turn out when Oc1ccc2c(c1)Cc1c-2cc2ccc(O)cc2c1-c1ccccc1C(F)(F)F [Compound 5u] was run?
The ERβ antagonism was “++ (>40%: ++)”.

Which ERβ antagonism does the source give for Cc1cccc(-c2c3c(cc4ccc(O)cc24)-c2ccc(O)cc2C3)c1 [Compound 5p] here?
Its ERβ antagonism is “+ (>5% (relative to ICI): +)”.

For Cc1ccc(-c2c3c(cc4ccc(O)cc24)-c2ccc(O)cc2C3)cc1 [Compound 5e], which ERβ antagonism is on record?
The ERβ antagonism was “++ (>40%: ++)”.

For Oc1ccc2c(c1)Cc1c-2cc2ccc(O)cc2c1-c1ccc(F)cc1 [Compound 5l], which ERβ antagonism is on record?
The ERβ antagonism was “++ (>40%: ++)”.

For Oc1ccc2c(c1)Cc1c-2cc2ccc(O)cc2c1-c1cccc(C(F)(F)F)c1 [Compound 5d], which ERβ antagonism is on record?
Its ERβ antagonism is “+ (>5% (relative to ICI): +)”.

Oc1ccc2c(c1)Cc1c-2cc2ccc(O)cc2c1-c1ccc(C(F)(F)F)cc1 [Compound 5o] was tested. Which ERβ antagonism did it give?
The ERβ antagonism was “+ (>5% (relative to ICI): +)”.

Which ERβ antagonism does the source give for CC(C)c1cccc(-c2c3c(cc4ccc(O)cc24)-c2ccc(O)cc2C3)c1 [Compound 5q] here?
Its ERβ antagonism is “+ (>5% (relative to ICI): +)”.
